Test results: patent US20230322724A1, “HETEROCYCLIC COMPOUNDS AS CBP/EP300 BROMODOMAIN INHIBITORS” (AURIGENE ONCOLOGY LIMITED, priority 2020, published 2023)
Where two headings read alike, the source gives them in different places.

What was measured:
[1] = biological target: T1, recombinant CREBBP bromodomain (Homo sapiens, UniProt Q92793); test: CBP TR-FRET displacement assay; type: binding; details: dose-response, read-out: IC50 (group A, B, C)
T1 construct: recombinant CREBBP bromodomain obtained from BPS Bioscience, USA; purchased BPS Bioscience, USA
Summary of the method: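 CREBBP bromodomain (50 nM) preincubated 30 min at room temperature with 500 nM biotinylated ligand in HEPES pH 7.5 buffer with TCEP, then 60 min with compound. Eu-anti-His/APC-streptavidin TR-FRET 665/615 nm ratio read; IC50 from sigmoidal dose-response fit.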

[2] = biological target: T2, recombinant BRD4 FL bromodomain (Homo sapiens, UniProt O60885); test: BRD4 FL TR-FRET displacement assay; type: binding; details: for IC50: dose-response, read-out: IC50 (group A, B, C); for inhibition at 10 µM: read-out: % Inhibition (10 μM)
T2 construct: fused on or other part: 6xHis tag, inferred from detection with Mab ANTI 6HIS-XL665
Description: The potency of compounds to inhibit BRD4 FL enzyme was tested in a TR-FRET displacement assay using recombinant BRD4 FL bromodomain obtained In-house. The assay buffer was 50 mM HEPES (pH 7.5), 50 mM NaCl, 500 μM CHAPS. 10 nM of BRD4 FL & 300 nM of Biotinylated Acetyl histone H4 (Lys 5, 8, 12, 16) (Millipore, USA) was incubated at room temperature for 30 minutes, the reaction was initiated by adding the pre-incubated enzyme ligand mixture to the test compounds. After 30 min incubation, the reaction was stopped by the addition of stop mix containing 1 nM of Europium Streptavidin cryptate (Cisbio, USA) and 5 nM of Mab ANTI 6HIS-XL665 (Cisbio, USA) dilutes in assay buffer containing 2.4M Potassium Fluoride. Fluorescence emission of the samples at 665 and 615 nm were measured at an excitation of 340 nm and their ratio was plotted against the compound concentrations to generate dose-response curve. The percent inhibition of the test compounds is calculated using the ratio of enzyme activity controls.
Selected compounds of the present invention were screened in the above-mentioned assay procedures and IC50 values were determined by fitting the dose-response data to sigmoidal curve fitting equation using Graph pad prism software V7.

T1 sequence (Q92793 1085-1192 limits assumed): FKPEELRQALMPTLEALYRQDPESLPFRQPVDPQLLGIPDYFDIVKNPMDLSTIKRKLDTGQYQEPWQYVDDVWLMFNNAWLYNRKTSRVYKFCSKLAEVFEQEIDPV

| Compound | IC50 [1] [µM] | IC50 ([2]; BRD4 FL) [µM] | inhibition at 10 µM ([2]; BRD4 FL, compound at 10 μM) [%] | inhibition at 10 µM [2] [%] |
| --- | --- | --- | --- | --- |
| COc1cc(N2CCN(C)c3cc(C4CCN(C)CC4)c(C#N)cc32)c2cc(C)c(=O)n(C)c2c1 [Example 70, 4-(7-Methoxy-1,3-dimethyl-2-oxo-1,2-dihydroquinolin-5-yl)-1-methyl-7-(1-methylpiperidin-4-yl)-1,2,3,4-tetrahydroquinoxaline-6-carbonitrile] | 0.051 to 0.1 | 2.01 to 5 | – | – |
| CONC(=O)COc1cc(N2CCN(C)c3cc(-c4cnn(C)c4)ccc32)c2cc(C)c(=O)n(C)c2c1 [Example 73, 2-((1,3-Dimethyl-5-(4-methyl-6-(1-methyl-1H-pyrazol-4-yl)-3,4-dihydroquinoxalin-1(2H)-yl)-2-oxo-1,2-dihydroquinolin-7-yl)oxy)-N-methoxyacetamide] | < 0.05 | 2.01 to 5 | – | – |
| COc1cc(N2CCN(C)c3ccc(C(C)=O)cc32)c2cc(C)c(=O)n(C)c2c1 [Example 79, 5-(7-Acetyl-4-methyl-3,4-dihydroquinoxalin-1(2H)-yl)-7-methoxy-1,3-dimethylquinolin-2(1H)-one] | 0.051 to 0.1 | – | 56 | – |
| Cc1cc2c(N3CCN(C)c4ccc(C#N)cc43)cc(OCC(=O)O)cc2n(C)c1=O [Example 82, 2-((5-(7-Cyano-4-methyl-3,4-dihydroquinoxalin-1(2H)-yl)-1,3-dimethyl-2-oxo-1,2-dihydroquinolin-7-yl)oxy)acetic acid] | 0.051 to 0.1 | 2.01 to 5 | – | – |
| COc1cc(N2CCN(C)c3ccc(CC(=O)NO)cc32)c2cc(C)c(=O)n(C)c2c1 [Example 83, N-hydroxy-2-(4-(7-methoxy-1,3-dimethyl-2-oxo-1,2-dihydroquinolin-5-yl)-1-methyl-1,2,3,4-tetrahydroquinoxalin-6-yl)acetamide] | > 0.01 | 2.01 to 5 | – | – |
| Cc1cc2c(N3CCN(C)c4ccc(S(N)(=O)=O)cc43)cccc2n(C)c1=O [Example 85, 4-(1,3-dimethyl-2-oxo-1,2-dihydroquinolin-5-yl)-1-methyl-1,2,3,4-tetrahydroquinoxaline-6-sulfonamide] | 0.051 to 0.1 | 2.01 to 5 | – | – |
| Cc1cc2c(N3CCN(C)c4cc(F)c(S(N)(=O)=O)cc43)cccc2n(C)c1=O [Example 87] | 0.051 to 0.1 | 2.01 to 5 | – | – |
| Cc1cc2c(N3CCN(C)c4cc(F)c(S(N)(=O)=O)cc43)cc(N3CCOCC3)cc2n(C)c1=O [Example 88] | < 0.05 | 2.01 to 5 | – | – |
| COc1cc(N2CCN(C)c3cc(C4CC=NO4)c(S(N)(=O)=O)cc32)c2cc(C)c(=O)n(C)c2c1 (stereo not drawn) [Example 91, 7-(4,5-Dihydroisoxazol-5-yl)-4-(7-methoxy-1,3-dimethyl-2-oxo-1,2-dihydroquinolin-5-yl)-1-methyl-1,2,3,4-tetrahydroquinoxaline-6-sulfonamide] | < 0.05 | 2.01 to 5 | – | – |
| CNS(=O)(=O)c1ccc2c(c1)N(c1cc(OC)cc3c1cc(C)c(=O)n3C)CCN2C [Example 95] | < 0.05 | 2.01 to 5 | – | – |
| COc1cc(N2CCN(C3CC3)c3ccc(S(N)(=O)=O)cc32)c2cc(C)c(=O)n(C)c2c1 [Example 96] | 0.051 to 0.1 | 2.01 to 5 | – | – |
| COc1cc(N2CCN(C)c3ccc(S(=O)(=O)NC(C)=O)cc32)c2cc(C)c(=O)n(C)c2c1 [Example 98] | < 0.05 | – | 56 | – |
| COc1cc(N2CCN(C)c3ccc(S(C)(=O)=O)cc32)c2cc(C)c(=O)n(C)c2c1 [Example 100] | 0.051 to 0.1 | 2.01 to 5 | – | – |
| COc1cc(N2CCN(C)c3ccc(S(=O)(=O)Nc4ccccc4)cc32)c2cc(C)c(=O)n(C)c2c1 [Example 102] | > 0.01 | 2.01 to 5 | – | – |
| CC(=O)NS(=O)(=O)c1ccc2c(c1)N(c1cccc3c1cc(C)c(=O)n3C)CCN2C [Example 103, N-((4-(1,3-dimethyl-2-oxo-1,2-dihydroquinolin-5-yl)-1-methyl-1,2,3,4-tetrahydroquinoxalin-6-yl)sulfonyl)acetamide] | > 0.01 | – | 36 | – |
| COc1cc(N2CCN(C)c3cc(F)c(S(=O)(=O)NC(C)=O)cc32)c2cc(C)c(=O)n(C)c2c1 [Example 104] | < 0.05 | – | 48 | – |
| CCC(=O)NS(=O)(=O)c1ccc2c(c1)N(c1cc(OC)cc3c1cc(C)c(=O)n3C)CCN2C [Example 106] | 0.051 to 0.1 | – | 16 | – |
| COc1cc(N2CCN(C)c3ccc(S(=O)(=O)NC(=O)C(F)(F)F)cc32)c2cc(C)c(=O)n(C)c2c1 [Example 107] | 0.051 to 0.1 | – | 15 | – |
| CC(=O)NS(=O)(=O)c1cc2c(cc1-c1cnn(C)c1)N(C)CCN2c1cccc2c1cc(C)c(=O)n2C [Example 112] | < 0.05 | – | 44 | – |
| COc1cc(N2CCN(C)c3cc(-c4cnn(C)c4)ncc32)c2cc(C)c(=O)n(C)c2c1 [Example 116, 7-Methoxy-1,3-dimethyl-5-(1-methyl-7-(1-methyl-1H-pyrazol-4-yl)-2,3-dihydropyrido[3,4-b]pyrazin-4(1H)-yl)quinolin-2(1H)-one] | 0.051 to 0.1 | – | 50 | – |

| Compound | IC50 [1] [µM] | IC50 ([2]; BRD4 FL) [µM] | inhibition at 10 µM ([2]; BRD4 FL, compound at 10 μM) [%] | inhibition at 10 µM [2] [%] |
| --- | --- | --- | --- | --- |
| COc1cc(N2CCN(C)c3cc(-c4cnn(C)c4)nc(C)c32)c2cc(C)c(=O)n(C)c2c1 [Example 127] | < 0.05 | – | 32 | – |
| Cc1cc2c(N3CCN(C)c4cc(-c5cnn(C)c5)ncc43)cc(OC(F)F)cc2n(C)c1=O [Example 129] | > 0.01 | 2.01 to 5 | – | – |
| Cc1cc2c(N3CCN(C)c4cc(-c5cnn(C)c5)ncc43)cc(OCC(F)F)cc2n(C)c1=O [Example 130] | 0.051 to 0.1 | – | 48 | – |
| Cc1cc2c(N3CCN(C)c4cc(-c5cnn(C)c5)ncc43)cccc2n(C)c1=O [Example 131] | > 0.01 | – | 52 | – |
| Cc1cc2c(N3CCN(C)c4cc(-c5cnn(C)c5)ncc43)cc(N3CC(C)OC(C)C3)cc2n(C)c1=O (stereo not drawn) [Example 132] | < 0.05 | 2.01 to 5 | – | – |
| Cc1cc2c(N3CCN(C)c4cc(-c5cnn(C)c5)ncc43)cc(N3C[C@@H](C)O[C@@H](C)C3)cc2n(C)c1=O [Example 133] | 0.051 to 0.1 | 2.01 to 5 | – | – |
| COc1ccc(CN2CCN(c3cc(N4CCOCC4)cc4c3cc(C)c(=O)n4C)c3cnc(-c4cnn(C)c4)cc32)cc1 [Example 135] | 0.051 to 0.1 | 2.01 to 5 | – | – |
| Cc1cc2c(N3CCN(C)c4cc(-c5cnn(C(C)C)c5)ncc43)cc(N3CCOCC3)cc2n(C)c1=O [Example 136] | < 0.05 | 2.01 to 5 | – | – |
| Cc1cc2c(N3CCN(C)c4cc(-c5cnn(C)c5)ncc43)cc(N3CCOC(C)C3)cc2n(C)c1=O (stereo not drawn) [Example 147] | 0.051 to 0.1 | – | 66 | – |
| Cc1cc2c(N3CCN(C)c4cc(-c5cnn(C)c5)ncc43)cc(N3CCS(=O)(=O)CC3)cc2n(C)c1=O [Example 148] | > 0.01 | – | 55 | – |
| Cc1cc2c(N3CCN(C)c4cc(-c5cnn(C)c5)ncc43)cc(N3CCC4(COC4)C3)cc2n(C)c1=O [Example 150] | < 0.05 | 2.01 to 5 | – | – |
| Cc1cc2c(N3CCN(C)c4cc(-c5cnn(C)c5)ncc43)cc(C(C)C)cc2n(C)c1=O [Example 151, 7-Isopropyl-1,3-dimethyl-5-(1-methyl-7-(1-methyl-1H-pyrazol-4-yl)-2,3-dihydropyrido[3,4-b]pyrazin-4(1H)-yl)quinolin-2(1H)-one] | 0.051 to 0.1 | – | 49 | – |
| Cc1cc2c(N3CCN(C)c4cc(-c5cnn(C)c5)ncc43)cc(C3CCCCC3)cc2n(C)c1=O [Example 152] | 0.051 to 0.1 | – | 48 | – |
| CC(=O)N1CCC(c2cc(N3CCN(C)c4cc(-c5cnn(C)c5)ncc43)c3cc(C)c(=O)n(C)c3c2)CC1 [Example 153] | < 0.05 | – | 45 | – |
| Cc1cc2c(N3CCN(C)c4cc(-c5cnn(C)c5)ncc43)cc(C3CCC(F)(F)CC3)cc2n(C)c1=O [Example 154] | 0.051 to 0.1 | 2.01 to 5 | – | – |
| Cc1cc2c(N3CCN(C)c4cc(-c5cnn(C)c5)ncc43)cc(OC(C)C)cc2n(C)c1=O [Example 156, 7-Isopropoxy-1,3-dimethyl-5-(1-methyl-7-(1-methyl-1H-pyrazol-4-yl)-2,3-dihydropyrido[3,4-b]pyrazin-4(1H)-yl)quinolin-2(1H)-one] | 0.051 to 0.1 | – | – | 47 |
| Cc1cc2c(N3CCN(C)c4cc(-c5cnn(C)c5)ncc43)cc(OC3CCOC3)cc2n(C)c1=O (stereo not drawn) [Example 157] | 0.051 to 0.1 | – | 41 | – |
| Cc1cc2c(N3CCN(C)c4cc(-c5cnn(C)c5)ncc43)cc(OCc3ncco3)cc2n(C)c1=O [Example 159] | 0.051 to 0.1 | 2.01 to 5 | – | – |
| Cc1cc2c(N3CCNc4cc(-c5cnn(C)c5)ncc43)cc(N3CCOCC3)cc2n(C)c1=O [Example 161, 1,3-Dimethyl-5-(7-(1-methyl-1H-pyrazol-4-yl)-2,3-dihydropyrido[3,4-b]pyrazin-4(1H)-yl)-7-morpholinoquinolin-2(1H)-one] | > 0.01 | – | 16 | – |
